Assay results reported in patent US20250154169A1, “COMPOUNDS AND METHODS FOR MODULATING SPLICING” (REMIX THERAPEUTICS INC., priority 2021, published 2025).
Where two headings read alike, the source gives them in different places.

How the values were obtained:
Format in all cases: cell-based, human
Target C mRNA = assay: Splicing RT-qPCR gene panel, Target C canonical junction (CJ) mRNA; conditions: Homo sapiens, Tables 4A/4B, read-out: Target C (IC50, decrease in CJ mRNA, gene panel)
In short: (§1)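 Canonical-junction mRNA levels were quantified by RT-qPCR in lysates, using ΔΔCt against a housekeeping gene (GAPDH, GUSB or PPIA) and DMSO wells, expressed as percentage response. Cells (A673 or K562) had been exposed for 24 h at 37° C. to 11 three-fold compound concentrations up to 10 uM, DMSO ≤0.25%.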

SMN2 mRNA = assay: Splicing RT-qPCR gene panel, SMN2 canonical junction (CJ) mRNA; conditions: Homo sapiens, Tables 4A/4B, read-out: SMN2 (IC50, decrease in CJ mRNA, gene panel)
In short: as §1

MYB mRNA = assay: Splicing RT-qPCR assay, MYB canonical (CJ) and alternative (AJ) junction mRNA; conditions: Homo sapiens; for AC50: read-out: MYB AJ (AC50, increase in alternative junction mRNA)
In short: (§2)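 One-step RT-qPCR on cell lysates, CJ and AJ isoforms quantified; housekeeping normalization GAPDH/GUSB (K562) or PPIA (A673). Cells: A673 in DMEM/10% FBS or K562 in IMDM/10% FBS. Compounds 11-pt 3-fold, top 10 uM, 24 h, 37 °C, 5% CO2.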

HTT mRNA [1] = assay: Splicing RT-qPCR assay, HTT canonical (CJ) and alternative (AJ) junction mRNA; conditions: Homo sapiens, A673 or K562 cells, 24 hours compound treatment; for IC50: 24 h, read-out: HTT CJ (IC50, decrease in canonical junction mRNA); for AC50: read-out: HTT AJ (AC50, increase in alternative junction mRNA)
In short: as §2

HTT mRNA [2] = assay: Splicing RT-qPCR gene panel, HTT canonical junction (CJ) mRNA; conditions: Homo sapiens, Tables 4A/4B, read-out: HTT (IC50, decrease in CJ mRNA, gene panel)
In short: as §1

[3] = 24 h, A673 or K562 cells, 24 hours compound treatment, RT-qPCR
[4] = 24 h, A673 or K562 cells, 24 hours compound treatment, RT-qPCR, read-out: MYB CJ (IC50, decrease in canonical junction mRNA)
[5] = Tables 4A/4B, canonical junction qPCR panel, read-out: MYB (IC50, decrease in CJ mRNA, gene panel)

Structure (SMILES) | IC50 (Target C mRNA) | IC50 (SMN2 mRNA) | AC50 (MYB mRNA; [3]) | IC50 (MYB mRNA; [4]) | IC50 (MYB mRNA; [5]) | IC50 (HTT mRNA [1]) | AC50 (HTT mRNA [1]) | IC50 (HTT mRNA [2])
CCNC1CCN(c2ccc(C(=O)Nc3cc(F)c4nc(C)cn4c3)c3nn(CC)cc23)CC1 [Compound 380, 2-ethyl-4-[4-(ethylamino)piperidin-1-yl]-N-{8-fluoro-2-methylimidazo[1,2-a]pyridin-6-yl}indazole-7-carboxamide] | 1000 to 10000 nM | < 100 nM | < 100 nM | < 100 nM | < 100 nM | 1000 to 10000 nM | 1000 to 10000 nM | 1000 to 10000 nM
Cc1cn2cc(NC(=O)c3ccc(N4CC[C@@H](N)C4)c4cn(C)nc34)cc(F)c2n1 [Compound 381, 4-[(3R)-3-aminopyrrolidin-1-yl]-N-{8-fluoro-2-methylimidazo[1,2-a]pyridin-6-yl}-2-methylindazole-7-carboxamide] | > 10000 nM | < 100 nM | < 100 nM | < 100 nM | < 100 nM | > 10000 nM | > 10000 nM | > 10000 nM
Cc1cn2cc(NC(=O)c3ccc(N4CC[C@H](N)C4)c4cn(C)nc34)cc(F)c2n1 [Compound 382, 4-[(3S)-3-aminopyrrolidin-1-yl]-N-{8-fluoro-2-methylimidazo[1,2-a]pyridin-6-yl}-2-methylindazole-7-carboxamide] | > 10000 nM | < 100 nM | < 100 nM | < 100 nM | < 100 nM | 1000 to 10000 nM | 1000 to 10000 nM | 1000 to 10000 nM
Cc1cn2cc(NC(=O)c3ccc(N4CC5(N)CC4C5)c4cn(C)nc34)cc(F)c2n1 [Compound 383, 4-{4-amino-2-azabicyclo[2.1.1]hexan-2-yl}-N-{8-fluoro-2-methylimidazo[1,2-a]pyridin-6-yl}-2-methylindazole-7-carboxamide] | > 10000 nM | < 100 nM | 100 to 1000 nM | < 100 nM | < 100 nM | > 10000 nM | > 10000 nM | > 10000 nM
Cc1cn2cc(NC(=O)c3ccc(N4CCNCC4)c4cn(CC5(O)COC5)nc34)cc(F)c2n1 [Compound 384, N-{8-fluoro-2-methylimidazo[1,2-a]pyridin-6-yl}-2-[(3-hydroxyoxetan-3-yl)methyl]-4-(piperazin-1-yl) indazole-7-carboxamide] | > 10000 nM | 100 to 1000 nM | 1000 to 10000 nM | > 10000 nM | > 10000 nM | > 10000 nM | > 10000 nM | > 10000 nM
COCCOc1nc2c(C(=O)Nc3cc(F)c4nc(C)cn4c3)ccc(N3CCNCC3)c2o1 [Compound 385, N-{8-fluoro-2-methylimidazo[1,2-a]pyridin-6-yl}-2-(2-methoxyethoxy)-7-(piperazin-1-yl)-1,3-benzoxazole-4-carboxamide] | > 10000 nM | > 10000 nM | > 10000 nM | > 10000 nM | > 10000 nM | > 10000 nM | > 10000 nM | > 10000 nM
Cn1cc2c(N3CCNCC3)ccc(C(=O)Nc3cc(F)c4nc(CO)cn4c3)c2n1 [Compound 389, N-[8-fluoro-2-(hydroxymethyl)imidazo[1,2-a]pyridin-6-yl]-2-methyl-4-(piperazin-1-yl) indazole-7-carboxamide; trifluoroacetic acid] | > 10000 nM | < 100 nM | 1000 to 10000 nM | 100 to 1000 nM | 100 to 1000 nM | > 10000 nM | > 10000 nM | > 10000 nM
CCn1cc2c(N3CC[C@@H](N(C)C)C3)ccc(C(=O)Nc3cc(F)c4nc(C)cn4c3)c2n1 [Compound 407, (R)-4-(3-(dimethylamino)pyrrolidin-1-yl)-2-ethyl-N-(8-fluoro-2-methylimidazo[1,2-a]pyridin-6-yl)-2H-indazole-7-carboxamide] | > 10000 nM | < 100 nM | 100 to 1000 nM | 100 to 1000 nM | 100 to 1000 nM | > 10000 nM | > 10000 nM | > 10000 nM
CCn1cc2c(N3CC[C@H](N(C)C)C3)ccc(C(=O)Nc3cc(F)c4nc(C)cn4c3)c2n1 [Compound 408, (S)-4-(3-(dimethylamino)pyrrolidin-1-yl)-2-ethyl-N-(8-fluoro-2-methylimidazo[1,2-a]pyridin-6-yl)-2H-indazole-7-carboxamide] | > 10000 nM | < 100 nM | 100 to 1000 nM | 100 to 1000 nM | 100 to 1000 nM | > 10000 nM | > 10000 nM | > 10000 nM
CCn1cc2c(N3CC[C@@H](NC4CC4)C3)ccc(C(=O)Nc3cc(F)c4nc(C)cn4c3)c2n1 [Compound 409, (R)-4-(3-(cyclopropylamino)pyrrolidin-1-yl)-2-ethyl-N-(8-fluoro-2-methylimidazo[1,2-a]pyridin-6-yl)-2H-indazole-7-carboxamide] | > 10000 nM | < 100 nM | < 100 nM | 100 to 1000 nM | 100 to 1000 nM | > 10000 nM | > 10000 nM | > 10000 nM
CCn1cc2c(N3CC[C@H](NC4CC4)C3)ccc(C(=O)Nc3cc(F)c4nc(C)cn4c3)c2n1 [Compound 410, (S)-4-(3-(cyclopropylamino)pyrrolidin-1-yl)-2-ethyl-N-(8-fluoro-2-methylimidazo[1,2-a]pyridin-6-yl)-2H-indazole-7-carboxamide] | > 10000 nM | < 100 nM | 1000 to 10000 nM | 100 to 1000 nM | 100 to 1000 nM | > 10000 nM | > 10000 nM | > 10000 nM
Cc1cn2cc(NC(=O)c3ccc(N4CCNCC4)c4cn(CC#N)nc34)cc(F)c2n1 [Compound 413, 2-(cyanomethyl)-N-{8-fluoro-2-methylimidazo[1,2-a]pyridin-6-yl}-4-(piperazin-1-yl) indazole-7-carboxamide] | > 10000 nM | < 100 nM | < 100 nM | < 100 nM | < 100 nM | 1000 to 10000 nM | 1000 to 10000 nM | 1000 to 10000 nM
Cc1cn2cc(NC(=O)c3ccc(N4CCNCC4)c4cn(CC56CC(O)(C5)C6)nc34)cc(F)c2n1 [Compound 414, N-{8-fluoro-2-methylimidazo[1,2-a]pyridin-6-yl}-2-({3-hydroxybicyclo[1.1.1]pentan-1-yl}methyl)-4-(piperazin-1-yl) indazole-7-carboxamide 2,2,2-trifluoroacetate] | > 10000 nM | 1000 to 10000 nM | 1000 to 10000 nM | 1000 to 10000 nM | 1000 to 10000 nM | > 10000 nM | > 10000 nM | > 10000 nM
CCn1cc2c(N3CCN4C(=O)OCC4C3)ccc(C(=O)Nc3cc(F)c4nc(C)cn4c3)c2n1 (stereo not shown) [Compound 415, 2-ethyl-N-{8-fluoro-2-methylimidazo[1,2-a]pyridin-6-yl}-4-{3-oxo-tetrahydro-1H-[1,3]oxazolo[3,4-a]pyrazin-7-yl}indazole-7-carboxamide] | 100 to 1000 nM | 100 to 1000 nM | 100 to 1000 nM | 100 to 1000 nM | 100 to 1000 nM | 100 to 1000 nM | 100 to 1000 nM | 100 to 1000 nM
